Experimental data as given in the supplement of paper PMC10627819.

Key:
Assay in all cases: fitness (endpoint OD595 vs no drug) (fraction); higher = more growth
S. aureus DSM 20231 = test system: S. aureus DSM 20231
Summary of the method: (§1)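 Fitness is computed from the optical density at which cultures reach stationary phase, divided by the robust mean of no-drug control wells. Any value above 1 is set to 1. Cultures started at OD595 0.01 in 384-well plates with TSB, LB Lennox or CY at 37 °C, and OD595 was read every 30 min for 14 h against a first-reading background.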

S. pneumoniae D39V = test system: S. pneumoniae D39V
Summary of the method: as §1

B. subtilis 168 = test system: B. subtilis 168
Summary of the method: as §1
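Note: OD595 on entry to stationary phase over no-drug wells; at most 1.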

CN(C)[C@@H]1C(O)=C(C(N)=O)C(=O)[C@@]2(O)C(O)=C3C(=O)c4c(O)ccc(Cl)c4[C@@](C)(O)[C@H]3C[C@@H]12 [Chlortetracycline] + COc1c(N2C[C@@H]3CCCN[C@@H]3C2)c(F)cc2c(=O)c(C(=O)O)cn(C3CC3)c12 [Moxifloxacin]
fitness (S. aureus DSM 20231; first compound 0.006 µg/mL, partner 0.0075 µg/mL, one replicate): 0.729
fitness (S. aureus DSM 20231; first compound 0.006 µg/mL, partner 0.015 µg/mL, one replicate): 0.719
fitness (S. aureus DSM 20231; first compound 0.006 µg/mL, partner 0.03 µg/mL, one replicate): 0.621
fitness (S. aureus DSM 20231; first compound 0.012 µg/mL, partner 0.0075 µg/mL): 0.558
fitness (S. aureus DSM 20231; first compound 0.012 µg/mL, partner 0.015 µg/mL): 0.539
fitness (S. aureus DSM 20231; first compound 0.012 µg/mL, partner 0.03 µg/mL): 0.604
fitness (S. aureus DSM 20231; first compound 0.012 µg/mL, partner 0.06 µg/mL, one replicate): 0.659
fitness (S. aureus DSM 20231; first compound 0.012 µg/mL, partner 0.12 µg/mL, one replicate): 0.548
fitness (S. aureus DSM 20231; first compound 0.024 µg/mL, partner 0.0075 µg/mL): 0.193
fitness (S. aureus DSM 20231; first compound 0.024 µg/mL, partner 0.015 µg/mL): 0.177
fitness (S. aureus DSM 20231; first compound 0.024 µg/mL, partner 0.06 µg/mL, one replicate): 0.66
fitness (S. aureus DSM 20231; first compound 0.024 µg/mL, partner 0.12 µg/mL, one replicate): 0.535
fitness (S. aureus DSM 20231; first compound 0.048 µg/mL, partner 0.0075 µg/mL): 0.185
fitness (S. aureus DSM 20231; first compound 0.048 µg/mL, partner 0.015 µg/mL): 0.172
fitness (S. aureus DSM 20231; first compound 0.048 µg/mL, partner 0.03 µg/mL): 0.132
fitness (S. aureus DSM 20231; first compound 0.048 µg/mL, partner 0.06 µg/mL, one replicate): 0.14
fitness (S. aureus DSM 20231; first compound 0.048 µg/mL, partner 0.12 µg/mL, one replicate): 0.165
fitness (S. pneumoniae D39V; first compound 0.012 µg/mL, partner 0.005 µg/mL): 0.907
fitness (S. pneumoniae D39V; first compound 0.012 µg/mL, partner 0.01 µg/mL): 0.923
fitness (S. pneumoniae D39V; first compound 0.012 µg/mL, partner 0.02 µg/mL): 0.765
fitness (S. pneumoniae D39V; first compound 0.024 µg/mL, partner 0.005 µg/mL): 0.863
fitness (S. pneumoniae D39V; first compound 0.024 µg/mL, partner 0.01 µg/mL): 0.915
fitness (S. pneumoniae D39V; first compound 0.024 µg/mL, partner 0.02 µg/mL): 0.844
fitness (S. pneumoniae D39V; first compound 0.048 µg/mL, partner 0.005 µg/mL): 0.821
fitness (S. pneumoniae D39V; first compound 0.048 µg/mL, partner 0.01 µg/mL): 0.871
fitness (S. pneumoniae D39V; first compound 0.048 µg/mL, partner 0.02 µg/mL): 0.78
fitness (S. pneumoniae D39V; first compound 0.375 µg/mL, partner 0.0312 µg/mL): 0.0285
fitness (S. pneumoniae D39V; first compound 0.375 µg/mL, partner 0.0625 µg/mL): 0.0351
fitness (S. pneumoniae D39V; first compound 0.375 µg/mL, partner 0.125 µg/mL): 0.0309
fitness (S. pneumoniae D39V; first compound 0.75 µg/mL, partner 0.0312 µg/mL): 0.0253
fitness (S. pneumoniae D39V; first compound 0.75 µg/mL, partner 0.0625 µg/mL): 0.0219
fitness (S. pneumoniae D39V; first compound 0.75 µg/mL, partner 0.125 µg/mL): 0.0157
fitness (S. pneumoniae D39V; first compound 1.5 µg/mL, partner 0.0312 µg/mL): 0.0473
fitness (S. pneumoniae D39V; first compound 1.5 µg/mL, partner 0.0625 µg/mL): 0.0386
fitness (S. pneumoniae D39V; first compound 1.5 µg/mL, partner 0.125 µg/mL): 0.0409
fitness (B. subtilis 168; first compound 0.0475 µg/mL, partner 0.0312 µg/mL): 0.0451
fitness (B. subtilis 168; first compound 0.0475 µg/mL, partner 0.0625 µg/mL): 0.0327
fitness (B. subtilis 168; first compound 0.0475 µg/mL, partner 0.125 µg/mL): 0.0439
fitness (B. subtilis 168; first compound 0.0475 µg/mL, partner 2 µg/mL): 0.0242
fitness (B. subtilis 168; first compound 0.0475 µg/mL, partner 4 µg/mL): 0.0248
fitness (B. subtilis 168; first compound 0.0475 µg/mL, partner 8 µg/mL): 0.0159
fitness (B. subtilis 168; first compound 0.095 µg/mL, partner 0.0312 µg/mL): 0.104
fitness (B. subtilis 168; first compound 0.095 µg/mL, partner 0.0625 µg/mL): 0.0278
fitness (B. subtilis 168; first compound 0.095 µg/mL, partner 0.125 µg/mL): 0.0296
fitness (B. subtilis 168; first compound 0.095 µg/mL, partner 2 µg/mL): 0.0289
fitness (B. subtilis 168; first compound 0.095 µg/mL, partner 4 µg/mL): 0.0255
fitness (B. subtilis 168; first compound 0.095 µg/mL, partner 8 µg/mL): 0.0155
fitness (B. subtilis 168; first compound 0.19 µg/mL, partner 0.0312 µg/mL): 0.0533
fitness (B. subtilis 168; first compound 0.19 µg/mL, partner 0.0625 µg/mL): 0.0332
fitness (B. subtilis 168; first compound 0.19 µg/mL, partner 0.125 µg/mL): 0.0433
fitness (B. subtilis 168; first compound 0.19 µg/mL, partner 2 µg/mL): 0.0261
fitness (B. subtilis 168; first compound 0.19 µg/mL, partner 4 µg/mL): 0.0247
fitness (B. subtilis 168; first compound 0.19 µg/mL, partner 8 µg/mL): 0.0129
